Data from patent US11739098B2 (BRISTOL-MYERS SQUIBB COMPANY, priority 2017, dated 2023).

What was measured:
Assay type in all cases: cell-based
[1] = biological target: T1, human TLR7 (Homo sapiens, UniProt Q9NYK1); assay: TLR7 inhibition reporter assay (HEK-Blue cells, SEAP reporter, gardiquimod stimulation); settings: HEK-Blue cells overexpressing human TLR7, SEAP reporter, gardiquimod 7.5 μM
T1 construct: host or cells: HEK-Blue cells (HEK293-derived reporter line)
T1 sequence (Q9NYK1 27-1049): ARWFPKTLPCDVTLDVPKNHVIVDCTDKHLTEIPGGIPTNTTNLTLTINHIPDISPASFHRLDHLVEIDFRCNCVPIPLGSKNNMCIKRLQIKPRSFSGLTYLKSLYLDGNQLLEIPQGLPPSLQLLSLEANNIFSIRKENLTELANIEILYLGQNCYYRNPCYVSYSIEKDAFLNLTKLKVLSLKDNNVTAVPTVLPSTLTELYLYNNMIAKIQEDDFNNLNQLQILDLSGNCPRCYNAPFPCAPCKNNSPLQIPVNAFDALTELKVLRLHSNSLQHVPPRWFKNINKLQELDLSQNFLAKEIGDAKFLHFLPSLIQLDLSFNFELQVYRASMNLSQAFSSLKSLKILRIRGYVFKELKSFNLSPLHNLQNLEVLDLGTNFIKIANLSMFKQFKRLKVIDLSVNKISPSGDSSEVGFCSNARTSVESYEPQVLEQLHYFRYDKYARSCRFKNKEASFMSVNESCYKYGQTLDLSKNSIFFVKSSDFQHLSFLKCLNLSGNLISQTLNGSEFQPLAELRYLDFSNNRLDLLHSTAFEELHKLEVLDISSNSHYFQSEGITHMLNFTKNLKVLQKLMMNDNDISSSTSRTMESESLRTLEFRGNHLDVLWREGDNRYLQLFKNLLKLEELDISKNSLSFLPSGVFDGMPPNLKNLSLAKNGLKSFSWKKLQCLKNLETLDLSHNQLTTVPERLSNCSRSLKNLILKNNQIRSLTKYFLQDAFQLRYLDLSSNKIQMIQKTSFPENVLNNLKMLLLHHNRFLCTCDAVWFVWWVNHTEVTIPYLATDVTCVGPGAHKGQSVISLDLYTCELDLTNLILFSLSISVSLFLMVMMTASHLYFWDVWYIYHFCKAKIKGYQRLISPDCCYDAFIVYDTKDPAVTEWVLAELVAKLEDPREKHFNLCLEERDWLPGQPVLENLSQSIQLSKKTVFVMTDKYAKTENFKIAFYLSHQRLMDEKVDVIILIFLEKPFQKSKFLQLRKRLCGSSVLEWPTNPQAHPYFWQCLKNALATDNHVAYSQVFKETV
Experimental: (§1) TLR7/8/9 Inhibition Reporter Assays
(§2) HEK-Blue™-cells (Invivogen) overexpressing human TLR7, TLR8 or TLR9 receptors were used for screening inhibitors of these receptors using an inducible SEAP (secreted embryonic alkaline phosphatase) reporter gene under the control of the IFN-β minimal promoter fused to five NF-κB and AP-1-binding sites. Briefly, cells are seeded into Greiner 384 well plates (15000 cells per well for TLR7, 20,000 for TLR8 and 25,000 for TLR9) and then treated with test compounds in DMSO to yield a final dose response concentration range of 0.05 nM-50 μM. After a 30 minute compound pre-treatment at room temperature, the cells are then stimulated with a TLR7 ligand (gardiquimod at a final concentration of 7.5 μM), TLR8 ligand (R848 at a final concentration of 15.9 μM) or TLR9 ligand (ODN2006 at a final concentration of 5 nM) to activate NF-κB and AP-1 which induce the production of SLAP After a 22 hour incubation at […], SLAP levels are determined with the addition of HLK-Blue™ Detection reagent (Invivogen), a cell culture medium that allows for detection of SLAP, according to manufacturer's specifications. The percent inhibition is determined as the […] in the HEK-Blue signal present in wells treated with agonist plus DMSO alone compared to wells treated with a known inhibitor.

[2] = biological target: T2, human TLR8 (Homo sapiens, UniProt Q9NR97); assay: TLR8 inhibition reporter assay (HEK-Blue cells, SEAP reporter, R848 stimulation); settings: HEK-Blue cells overexpressing human TLR8, SEAP reporter, R848 15.9 μM
T2 construct: host or cells: HEK-Blue cells (HEK293-derived reporter line)
T2 sequence (Q9NR97 27-1041): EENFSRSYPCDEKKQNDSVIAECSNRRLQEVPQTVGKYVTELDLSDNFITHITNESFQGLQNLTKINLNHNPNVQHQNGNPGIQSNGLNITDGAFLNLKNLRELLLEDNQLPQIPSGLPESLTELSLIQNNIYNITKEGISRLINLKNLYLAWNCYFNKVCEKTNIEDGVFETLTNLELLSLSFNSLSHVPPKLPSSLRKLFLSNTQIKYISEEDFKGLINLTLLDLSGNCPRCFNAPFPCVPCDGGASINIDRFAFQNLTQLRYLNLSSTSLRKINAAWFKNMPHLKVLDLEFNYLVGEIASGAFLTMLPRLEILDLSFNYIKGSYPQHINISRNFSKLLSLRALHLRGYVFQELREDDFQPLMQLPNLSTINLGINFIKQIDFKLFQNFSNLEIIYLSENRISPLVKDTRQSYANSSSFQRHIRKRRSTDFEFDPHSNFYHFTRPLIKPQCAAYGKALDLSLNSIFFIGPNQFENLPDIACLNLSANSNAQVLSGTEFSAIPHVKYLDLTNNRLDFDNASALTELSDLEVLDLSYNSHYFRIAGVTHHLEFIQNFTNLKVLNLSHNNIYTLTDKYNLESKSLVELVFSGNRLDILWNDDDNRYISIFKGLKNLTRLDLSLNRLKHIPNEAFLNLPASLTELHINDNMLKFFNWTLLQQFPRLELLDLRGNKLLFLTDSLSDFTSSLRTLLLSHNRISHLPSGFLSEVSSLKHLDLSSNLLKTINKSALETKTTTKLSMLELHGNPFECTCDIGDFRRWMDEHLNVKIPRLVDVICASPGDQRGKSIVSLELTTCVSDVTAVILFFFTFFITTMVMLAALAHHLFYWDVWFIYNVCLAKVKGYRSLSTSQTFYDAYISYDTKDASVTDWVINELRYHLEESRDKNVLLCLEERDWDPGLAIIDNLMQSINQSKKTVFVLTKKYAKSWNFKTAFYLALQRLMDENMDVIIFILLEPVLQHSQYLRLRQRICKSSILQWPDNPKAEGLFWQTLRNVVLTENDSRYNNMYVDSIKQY
Experimental: as §1, §2

[3] = biological target: T3, human TLR9 (Homo sapiens, UniProt Q9NR96); assay: TLR9 inhibition reporter assay (HEK-Blue cells, SEAP reporter, ODN2006 stimulation); settings: HEK-Blue cells overexpressing human TLR9, SEAP reporter, ODN2006 5 nM
T3 construct: host or cells: HEK-Blue cells (HEK293-derived reporter line)
T3 sequence (Q9NR96 26-1032): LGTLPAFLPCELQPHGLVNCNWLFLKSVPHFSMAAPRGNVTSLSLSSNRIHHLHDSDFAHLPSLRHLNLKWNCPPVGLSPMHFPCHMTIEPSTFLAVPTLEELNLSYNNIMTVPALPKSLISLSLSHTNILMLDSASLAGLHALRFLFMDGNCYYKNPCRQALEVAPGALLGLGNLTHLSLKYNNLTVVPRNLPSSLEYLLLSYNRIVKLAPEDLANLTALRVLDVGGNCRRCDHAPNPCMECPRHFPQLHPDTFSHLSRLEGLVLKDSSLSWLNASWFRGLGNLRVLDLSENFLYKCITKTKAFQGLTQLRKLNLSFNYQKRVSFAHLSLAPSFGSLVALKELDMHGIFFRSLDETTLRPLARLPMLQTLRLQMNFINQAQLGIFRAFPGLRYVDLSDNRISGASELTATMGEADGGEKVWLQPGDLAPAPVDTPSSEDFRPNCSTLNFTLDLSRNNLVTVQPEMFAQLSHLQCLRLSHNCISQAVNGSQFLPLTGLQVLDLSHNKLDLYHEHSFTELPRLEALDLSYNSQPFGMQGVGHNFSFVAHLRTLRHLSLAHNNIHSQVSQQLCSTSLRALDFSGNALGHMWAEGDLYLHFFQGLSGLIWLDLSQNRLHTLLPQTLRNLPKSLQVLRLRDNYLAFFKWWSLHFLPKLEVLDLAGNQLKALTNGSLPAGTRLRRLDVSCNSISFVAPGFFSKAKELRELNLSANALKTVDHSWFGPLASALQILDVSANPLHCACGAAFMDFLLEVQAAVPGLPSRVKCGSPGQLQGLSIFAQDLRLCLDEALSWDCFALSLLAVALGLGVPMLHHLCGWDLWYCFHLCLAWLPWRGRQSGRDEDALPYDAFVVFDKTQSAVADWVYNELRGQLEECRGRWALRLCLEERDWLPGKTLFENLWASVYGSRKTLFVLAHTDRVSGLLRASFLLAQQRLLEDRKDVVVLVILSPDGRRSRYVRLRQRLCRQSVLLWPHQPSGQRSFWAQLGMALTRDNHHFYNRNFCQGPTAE
Experimental: as §1, §2

**Q.** For `COc1ccc(CN2CCC(c3ccc4[nH]c(-c5ccc6nccn6c5)c(C(C)C)c4c3)CC2)cn1` [Example 935, 6-(3-isopropyl-5-(1-((6-methoxypyridin-3-yl)methyl)piperidin-4-yl)-1H-indol-2-yl)imidazo[1,2-a]pyridine], which IC50 [1] is on record?
**A.** < 100 nM

**Q.** And the IC50 [2]?
**A.** < 100 nM

**Q.** And the IC50 [3]?
**A.** 100 to 1000 nM

**Q.** Which results are given for `Cc1cn2cc(-c3[nH]c4ccc(C5CCN(C(C)C)CC5)cc4c3C(C)C)ccc2n1` [Example 945, 6-(3-isopropyl-5-(1-isopropylpiperidin-4-yl)-1H-indol-2-yl)-2-methylimidazo[1,2-a]pyridine]?
**A.** IC50 [1]: < 100 nM; IC50 [2]: 100 to 1000 nM; IC50 [3]: 100 to 1000 nM

**Q.** Which IC50 [1] does the source give for `Cc1cn2c(C)cc(-c3[nH]c4ccc(C5CCNCC5)cc4c3C(C)C)cc2n1` [Example 160, 7-(3-isopropyl-5-(piperidin-4-yl)-1H-indol-2-yl)-2,5-dimethylimidazo[1,2-a]pyridine] here?
**A.** 100 to 1000 nM

**Q.** And the IC50 [2]?
**A.** 100 to 1000 nM

**Q.** And the IC50 [3]?
**A.** 100 to 1000 nM

**Q.** Which IC50 [1] does the source give for `CC(C)c1c(-c2cn(C)c3ncccc23)[nH]c2ccc(C3CCN(CC#N)CC3)cc12` [Example 958, 2-(4-(3-isopropyl-2-(1-methyl-1H-pyrrolo[2,3-b]pyridin-3-yl)-1H-indol-5-yl)piperidin-1-yl)acetonitrile] here?
**A.** < 100 nM

**Q.** And the IC50 [2]?
**A.** < 100 nM

**Q.** And the IC50 [3]?
**A.** 1000 to 50000 nM

**Q.** For `Cc1cc(-c2[nH]c3ccc(C4CCNCC4)cc3c2C(C)C)cc2ncnn12` [Example 154, 7-(3-isopropyl-5-(piperidin-4-yl)-1H-indol-2-yl)-5-methyl-[1,2,4]triazolo[1,5-a]pyridine], which IC50 [1] is on record?
**A.** < 100 nM

**Q.** What about the IC50 [2] of the same molecule?
**A.** < 100 nM

**Q.** And the IC50 [3]?
**A.** 1000 to 50000 nM

**Q.** With `CC(C)c1c(-c2ccnc3[nH]ncc23)[nH]c2ccc(C3CCNCC3F)cc12` (stereo not drawn) [Example 172, 4-(5-(3-fluoropiperidin-4-yl)-3-isopropyl-1H-indol-2-yl)-1H-pyrazolo[3,4-b]pyridine] as the molecule, how does the IC50 [1] read?
**A.** < 100 nM

**Q.** What about the IC50 [2] of the same molecule?
**A.** < 100 nM

**Q.** And the IC50 [3]?
**A.** 1000 to 50000 nM

**Q.** What does the source list for `CNC(=O)CN1CCC(c2ccc3[nH]c(-c4cc(OC)n5ccnc5c4)c(C(C)C)c3c2)CC1` [Example 356, 2-(4-(3-isopropyl-2-(5-methoxyimidazo[1,2-a]pyridin-7-yl)-1H-indol-5-yl)piperidin-1-yl)-N-methylacetamide]?
**A.** IC50 [1]: 100 to 1000 nM; IC50 [2]: 100 to 1000 nM; IC50 [3]: 100 to 1000 nM

**Q.** With `CC(C)c1c(-c2ccnc3[nH]ncc23)[nH]c2ccc(C3CCN(C(=O)CCN(C)C)CC3)cc12` [Example 643, 3-(dimethylamino)-1-(4-(3-isopropyl-2-(1H-pyrazolo[3,4-b]pyridin-4-yl)-1H-indol-5-yl)piperidin-1-yl)propan-1-one] as the molecule, how does the IC50 [1] read?
**A.** < 100 nM

**Q.** And the IC50 [2]?
**A.** < 100 nM

**Q.** What about the IC50 [3] of the same molecule?
**A.** 100 to 1000 nM

**Q.** `Cc1cc(-c2[nH]c3ccc(C4CCN(CC(=O)N(C)C)CC4)cc3c2C(C)C)cn2nncc12` [Example 307, 2-(4-(3-isopropyl-2-(4-methyl-[1,2,3]triazolo [1,5-a]pyridin-6-yl)-1H-indol-5-yl)piperidin-1-yl)-N,N-dimethylacetamide] was tested. Which IC50 [1] did it give?
**A.** 100 to 1000 nM

**Q.** And the IC50 [2]?
**A.** 100 to 1000 nM

**Q.** And the IC50 [3]?
**A.** 1000 to 50000 nM

**Q.** Which results are given for `CCc1c(-c2ccnc3[nH]ncc23)[nH]c2ccc(C3CCN(Cc4ncco4)CC3)cc12` [Example 867, 2-((4-(3-ethyl-2-(1H-pyrazolo[3,4-b]pyridin-4-yl)-1H-indol-5-yl)piperidin-1-yl)methyl)oxazole]?
**A.** IC50 [1]: 100 to 1000 nM; IC50 [2]: 100 to 1000 nM; IC50 [3]: 1000 to 50000 nM

**Q.** For `Cc1cc(-c2[nH]c3ccc(C4CCNCC4)cc3c2C(C)C)cc2c(C(=O)N(C)C)cnn12` [Example 275, 5-(3-isopropyl-5-(piperidin-4-yl)-1H-indol-2-yl)-N,N,7-trimethylpyrazolo[1,5-a]pyridine-3-carboxamide], which IC50 [1] is on record?
**A.** 100 to 1000 nM

**Q.** What about the IC50 [2] of the same molecule?
**A.** > 3130 nM

**Q.** What about the IC50 [3] of the same molecule?
**A.** 1000 to 50000 nM

**Q.** Which IC50 [1] does the source give for `CCN(CC)CCN1CCC(c2ccc3[nH]c(-c4ccnc5[nH]ncc45)c(C(C)C)c3c2)CC1` [Example 661, N,N-diethyl-2-(4-(3-isopropyl-2-(1H-pyrazolo[3,4-b]pyridin-4-yl)-1H-indol-5-yl)piperidin-1-yl)ethan-1-amine] here?
**A.** < 100 nM

**Q.** And the IC50 [2]?
**A.** < 100 nM

**Q.** And the IC50 [3]?
**A.** 100 to 1000 nM

**Q.** Which results are given for `COc1cc(-c2[nH]c3ccc(C4CCNCC4)cc3c2C(C)C)c2ccccc2n1` [Example 105, 4-(3-isopropyl-5-(piperidin-4-yl)-1H-indol-2-yl)-2-methoxyquinoline]?
**A.** IC50 [1]: < 100 nM; IC50 [2]: 100 to 1000 nM; IC50 [3]: 1000 to 50000 nM
